# Measured values taken from ChEMBL document CHEMBL5154899, “Spiropyrimidinetrione DNA Gyrase Inhibitors with Potent and Selective Antituberculosis Activity” (J Med Chem, 2022).
# Experiments:
# [1] = test system: Mycobacterium tuberculosis; assay: microbe, parasite or virus in culture; details: H37Rv, 192 h
# Description: Antibacterial activity against Mycobacterium tuberculosis H37Rv assessed as inhibition of bacterial growth measured after 8 days by Alamar blue reagent based broth microdilution method
# [2] = test system: Staphylococcus aureus; assay: microbe, parasite or virus in culture; details: ATTC 25923, 192 h
# [3] = test system: Escherichia coli; assay: microbe, parasite or virus in culture; details: ATTC 25922, 192 h
# [4] = molecular target: DNA gyrase subunit A/DNA gyrase subunit B (Mycobacterium tuberculosis (strain ATCC 25618 / H37Rv), UniProt P9WG45+P9WG47); assay: Inhibition of Mycobacterium tuberculosis H37Rv DNA gyrase
# [5] = test system: Mycobacterium tuberculosis; assay: microbe, parasite or virus in culture; details: H37Rv, 264 h
# Description: Antibacterial activity against Mycobacterium tuberculosis H37Rv gyrA -FDASTetON-1 hypomorph assessed as inhibition of bacterial growth incubated for 11 days
# [6] = molecular target: DNA gyrase (Staphylococcus aureus, UniProt P0A0K8+P20831)
# [7] = test system: Mycobacterium tuberculosis; assay: microbe, parasite or virus in culture; details: H37Rv, 264 h; remark: listed apart in the source
# Description: Antibacterial activity against wild type Mycobacterium tuberculosis H37Rv assessed as inhibition of bacterial growth incubated for 11 days
# [8] = physchem
# Chain of DNA gyrase subunit A/DNA gyrase subunit B (P9WG45 whole entry): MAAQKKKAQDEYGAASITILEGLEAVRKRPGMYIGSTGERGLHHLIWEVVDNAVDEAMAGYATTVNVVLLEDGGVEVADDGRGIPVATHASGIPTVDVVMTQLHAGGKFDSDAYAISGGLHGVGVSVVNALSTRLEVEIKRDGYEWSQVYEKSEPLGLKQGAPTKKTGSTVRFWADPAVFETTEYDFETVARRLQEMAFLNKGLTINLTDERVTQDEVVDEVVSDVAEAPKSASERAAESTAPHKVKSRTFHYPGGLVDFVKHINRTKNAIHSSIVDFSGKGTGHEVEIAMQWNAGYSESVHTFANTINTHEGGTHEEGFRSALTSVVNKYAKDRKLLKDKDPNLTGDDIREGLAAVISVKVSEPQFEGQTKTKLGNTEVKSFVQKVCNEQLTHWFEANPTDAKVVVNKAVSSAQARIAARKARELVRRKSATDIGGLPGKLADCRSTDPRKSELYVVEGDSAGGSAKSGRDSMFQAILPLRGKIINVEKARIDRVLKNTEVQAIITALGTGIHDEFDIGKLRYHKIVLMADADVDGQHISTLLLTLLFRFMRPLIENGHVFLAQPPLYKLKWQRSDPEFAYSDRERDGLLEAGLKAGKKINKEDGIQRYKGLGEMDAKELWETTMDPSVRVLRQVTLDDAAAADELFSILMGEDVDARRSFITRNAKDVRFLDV
# Chain of DNA gyrase subunit A/DNA gyrase subunit B (P9WG47 whole entry): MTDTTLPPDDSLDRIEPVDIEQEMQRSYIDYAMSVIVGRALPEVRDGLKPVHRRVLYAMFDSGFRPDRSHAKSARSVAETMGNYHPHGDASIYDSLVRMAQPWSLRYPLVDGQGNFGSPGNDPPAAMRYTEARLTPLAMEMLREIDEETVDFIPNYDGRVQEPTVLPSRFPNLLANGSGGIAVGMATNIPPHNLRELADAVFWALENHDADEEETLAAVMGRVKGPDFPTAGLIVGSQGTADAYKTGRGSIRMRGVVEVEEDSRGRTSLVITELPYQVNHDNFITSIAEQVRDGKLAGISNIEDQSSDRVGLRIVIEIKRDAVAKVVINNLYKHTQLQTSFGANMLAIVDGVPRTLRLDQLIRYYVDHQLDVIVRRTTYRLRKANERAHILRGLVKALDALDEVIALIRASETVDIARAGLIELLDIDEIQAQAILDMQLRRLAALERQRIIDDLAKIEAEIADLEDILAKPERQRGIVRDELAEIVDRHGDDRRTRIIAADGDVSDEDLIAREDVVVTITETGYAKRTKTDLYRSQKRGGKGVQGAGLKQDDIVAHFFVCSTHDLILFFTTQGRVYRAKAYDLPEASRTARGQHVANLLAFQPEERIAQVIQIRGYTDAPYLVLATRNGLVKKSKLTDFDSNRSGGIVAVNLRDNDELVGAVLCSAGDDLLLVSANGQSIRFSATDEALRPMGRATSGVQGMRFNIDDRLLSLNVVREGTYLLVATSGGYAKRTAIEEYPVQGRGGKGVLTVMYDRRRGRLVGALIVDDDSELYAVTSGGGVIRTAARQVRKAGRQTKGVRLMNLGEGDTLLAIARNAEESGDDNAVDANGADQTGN
# Chain of DNA gyrase (P0A0K8 whole entry): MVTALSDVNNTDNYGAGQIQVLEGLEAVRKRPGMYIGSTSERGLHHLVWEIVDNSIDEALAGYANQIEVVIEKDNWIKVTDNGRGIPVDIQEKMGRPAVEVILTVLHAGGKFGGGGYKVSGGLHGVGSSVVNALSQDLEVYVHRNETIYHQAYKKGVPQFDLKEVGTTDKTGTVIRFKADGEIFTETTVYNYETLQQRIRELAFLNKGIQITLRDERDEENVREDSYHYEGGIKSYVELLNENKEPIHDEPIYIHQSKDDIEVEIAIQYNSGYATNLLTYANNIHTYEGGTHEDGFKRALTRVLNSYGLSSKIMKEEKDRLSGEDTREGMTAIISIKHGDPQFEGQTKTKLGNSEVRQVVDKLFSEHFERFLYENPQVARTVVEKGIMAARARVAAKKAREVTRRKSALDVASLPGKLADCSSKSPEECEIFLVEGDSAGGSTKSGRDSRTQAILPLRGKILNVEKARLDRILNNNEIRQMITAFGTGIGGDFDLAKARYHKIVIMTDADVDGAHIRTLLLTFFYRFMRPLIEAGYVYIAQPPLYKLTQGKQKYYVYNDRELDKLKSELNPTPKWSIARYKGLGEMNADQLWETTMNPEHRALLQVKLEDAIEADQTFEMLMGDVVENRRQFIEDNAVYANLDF
# Chain of DNA gyrase (P20831 whole entry): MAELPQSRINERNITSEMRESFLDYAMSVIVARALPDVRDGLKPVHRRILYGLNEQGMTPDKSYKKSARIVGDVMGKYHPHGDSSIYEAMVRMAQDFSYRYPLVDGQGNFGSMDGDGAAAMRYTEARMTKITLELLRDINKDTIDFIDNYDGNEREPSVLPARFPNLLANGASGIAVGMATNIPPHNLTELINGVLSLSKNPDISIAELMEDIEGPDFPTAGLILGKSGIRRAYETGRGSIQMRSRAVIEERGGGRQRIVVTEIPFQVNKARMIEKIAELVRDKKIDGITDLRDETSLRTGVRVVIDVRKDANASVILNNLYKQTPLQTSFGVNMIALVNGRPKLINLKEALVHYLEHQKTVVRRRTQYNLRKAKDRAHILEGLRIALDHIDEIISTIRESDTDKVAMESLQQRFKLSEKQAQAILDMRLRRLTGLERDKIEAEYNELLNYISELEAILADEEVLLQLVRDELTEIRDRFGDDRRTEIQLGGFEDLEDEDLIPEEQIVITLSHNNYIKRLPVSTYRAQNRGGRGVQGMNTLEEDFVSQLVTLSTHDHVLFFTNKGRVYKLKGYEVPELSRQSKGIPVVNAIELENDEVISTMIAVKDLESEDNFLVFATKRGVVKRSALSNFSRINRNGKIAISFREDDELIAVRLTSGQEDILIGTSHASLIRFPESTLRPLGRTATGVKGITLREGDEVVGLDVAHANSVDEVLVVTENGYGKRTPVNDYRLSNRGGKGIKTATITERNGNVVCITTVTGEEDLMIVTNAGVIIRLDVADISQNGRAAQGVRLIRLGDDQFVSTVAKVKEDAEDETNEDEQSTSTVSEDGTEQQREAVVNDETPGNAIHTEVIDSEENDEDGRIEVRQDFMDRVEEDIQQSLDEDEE
Compound,MIC [1] [µM],MIC [2] [µM],MIC [3] [µM],other results
C[C@@H]1CN2c3c(cc4c(N5CC[C@H](CO)C5)noc4c3F)CC3(C(=O)NC(=O)NC3=O)[C@H]2[C@H](C)O1,16,> 125,> 125,IC50 [4]: 18 µM
C[C@@H]1CN2c3c(cc4c(N5C(=O)OC[C@@H]5C)noc4c3F)CC3(C(=O)NC(=O)NC3=O)[C@H]2[C@H](C)N1CC#N,> 125,> 125,> 125,
C[C@@H]1CN2c3c(cc4c(OC[C@@H]5CCC(=O)N5)noc4c3F)CC3(C(=O)NC(=O)NC3=O)[C@H]2[C@H](C)N1C#N,0.49,> 125,> 125,
C[C@@H]1CN2c3c(cc4c(N5CC[C@@](C)(O)C5)noc4c3F)CC3(C(=O)NC(=O)NC3=O)[C@H]2[C@H](C)O1,> 250,> 250,> 250,
C[C@@H]1CN2c3c(cc4c(N5CCC[C@@H](O)C5)noc4c3F)CC3(C(=O)NC(=O)NC3=O)[C@H]2[C@H](C)O1,10,,> 125,
C[C@@H]1CN2c3c(cc4c(N5C[C@@H](O)[C@H](O)C5)noc4c3F)CC3(C(=O)NC(=O)NC3=O)[C@H]2[C@H](C)O1,5.9,> 125,,MIC50 [5]: 1.24 µM; MIC99 [5]: 3.2 µM; IC50 [6]: 6.6 µM; MIC50 [7]: 3.65 µM; MIC99 [7]: 6.75 µM; IC50 [4]: 16 µM
C[C@H]1C[C@@H](C)[C@H]2N(C1)c1c(cc3c(OC[C@@H]4CCC(=O)N4)noc3c1F)CC21C(=O)NC(=O)NC1=O,16,7.8,63,
Cc1nnc(-c2noc3c(F)c4c(cc23)CC2(C(=O)NC(=O)NC2=O)[C@H]2[C@H](C)N(C#N)[C@H](C)CN42)o1,1.5,> 125,> 125,
C[C@@H]1CN2c3c(cc4c(N5C(=O)OC[C@@H]5C)noc4c3F)CC3(C(=O)NC(=O)NC3=O)[C@H]2[C@H](C)N1,> 125,63,31,
C[C@@H]1CN2c3c(cc4c(N5CC[C@H](N)C5)noc4c3F)CC3(C(=O)NC(=O)NC3=O)[C@H]2[C@H](C)O1,63,125,125,IC50 [4]: 34 µM
C[C@@H]1CN2c3c(cc4c(OC[C@@H]5CNC(=O)C5)noc4c3F)CC3(C(=O)NC(=O)NC3=O)[C@H]2[C@H](C)O1,2,> 125,> 250,
C[C@@H]1CN2c3c(cc4c(N5CC[C@@H](O)C5)noc4c3F)CC3(C(=O)NC(=O)NC3=O)[C@H]2[C@H](C)N1C#N,,> 125,,
C[C@@H]1CN2c3c(cc4c(N5CC[C@H](C#N)C5)noc4c3F)CC3(C(=O)NC(=O)NC3=O)[C@H]2[C@H](C)O1,4,> 125,31,IC50 [4]: 10 µM
C[C@@H]1CN2c3c(cc4c(OC[C@H]5COC(=O)N5)noc4c3F)CC3(C(=O)NC(=O)NC3=O)[C@H]2[C@H](C)O1,,63,,
C[C@@H]1CN2c3c(cc4c(N5C[C@@H](O)[C@@H](O)C5)noc4c3F)CC3(C(=O)NC(=O)NC3=O)[C@H]2[C@H](C)O1,16,,,
C[C@@H]1CN2c3c(cc4c(N5C[C@H](O)[C@@H](O)C5)noc4c3F)CC3(C(=O)NC(=O)NC3=O)[C@H]2[C@H](C)O1,31,,> 125,
CO[C@H]1/C=C/O[C@@]2(C)Oc3c(C)c(O)c4c(O)c(c(/C=N/N5CCN(C)CC5)c(O)c4c3C2=O)NC(=O)/C(C)=C\C=C\[C@H](C)[C@H](O)[C@@H](C)[C@@H](O)[C@@H](C)[C@H](OC(C)=O)[C@@H]1C [RIFAMPIN],,,,MIC50 [5]: 0.021 µM; MIC99 [5]: 0.037 µM; MIC50 [7]: 0.24 µM; MIC99 [7]: 0.041 µM
C[C@@H]1CN2c3c(cc4c(N5CC[C@@H](O)C5)noc4c3F)CC3(C(=O)NC(=O)NC3=O)[C@H]2[C@H](C)O1,3.9,,,
C[C@@H]1CN2c3c(cc4c(OC[C@H]5CNC(=O)C5)noc4c3F)CC3(C(=O)NC(=O)NC3=O)[C@H]2[C@H](C)O1,,31,63,
CN[C@H]1CCN(c2noc3c(F)c4c(cc23)CC2(C(=O)NC(=O)NC2=O)[C@H]2[C@H](C)O[C@H](C)CN42)C1,63,125,125,
C[C@@H]1CN2c3c(cc4c(N5CC[C@H](O)C5)noc4c3F)CC3(C(=O)NC(=O)NC3=O)[C@H]2[C@H](C)N1C#N,7.8,,> 125,MIC50 [5]: 1.75 µM; MIC99 [5]: 5.05 µM; IC50 [6]: 3.1 µM; MIC50 [7]: 5.35 µM; MIC99 [7]: 10.3 µM
Cc1nnc(COc2noc3c(F)c4c(cc23)CC2(C(=O)NC(=O)NC2=O)[C@H]2[C@H](C)O[C@H](C)CN42)o1,63,> 125,> 125,

Compound,MIC [1] [µM],MIC [2] [µM],MIC [3] [µM],other results
Cc1nnc(-c2noc3c(F)c4c(cc23)CC2(C(=O)NC(=O)NC2=O)[C@H]2[C@H](C)O[C@H](C)CN42)o1,0.45,,31,
C[C@@H]1CN2c3c(cc4c(N5C(=O)OC[C@@H]5C)noc4c3F)CC3(C(=O)NC(=O)NC3=O)[C@H]2[C@H](C)O1 [ZOLIFLODACIN],0.35,,1.4,"MIC50 [5]: 4.6 µM; MIC99 [5]: 12 µM; solubility kinetic at 20 h, 200 µM [8]: 160 µM; MIC50 [7]: 20 µM; MIC99 [7]: 44 µM"
C[C@@H]1CN2c3c(cc4c(OC[C@@H]5COC(=O)N5)noc4c3F)CC3(C(=O)NC(=O)NC3=O)[C@H]2[C@H](C)O1,2,,> 250,
C[C@@H]1CN2c3c(cc4c(OCC[C@@H]5CCC(=O)N5)noc4c3F)CC3(C(=O)NC(=O)NC3=O)[C@H]2[C@H](C)O1,3.9,31,> 125,
C[C@@H]1CN2c3c(cc4c(OC[C@@H]5CCC(=O)O5)noc4c3F)CC3(C(=O)NC(=O)NC3=O)[C@H]2[C@H](C)O1,2,3.9,> 125,
C[C@@H]1CN2c3c(cc4c(N5CC[C@H](O)C5)noc4c3F)CC3(C(=O)NC(=O)NC3=O)[C@H]2[C@H](C)O1,5.9,64,> 125,MIC50 [5]: 0.92 µM; MIC99 [5]: 2.4 µM; IC50 [6]: 6.9 µM; MIC50 [7]: 3.3 µM; MIC99 [7]: 5.9 µM; IC50 [4]: 20 µM
C[C@@H]1CN2c3c(cc4c(N5CC[C@H](C(=O)O)C5)noc4c3F)CC3(C(=O)NC(=O)NC3=O)[C@H]2[C@H](C)O1,> 125,> 125,> 125,
C[C@@H]1CN2c3c(cc4c(-n5cncn5)noc4c3F)CC3(C(=O)NC(=O)NC3=O)[C@H]2[C@H](C)O1,0.24,,2,MIC50 [5]: 0.26 µM; MIC99 [5]: 0.65 µM; IC50 [6]: 1.7 µM; MIC50 [7]: 1.8 µM; MIC99 [7]: 3.8 µM; IC50 [4]: 18 µM
C[C@@H]1CN2c3c(cc4c(OC[C@@H]5CCC(=O)N5C)noc4c3F)CC3(C(=O)NC(=O)NC3=O)[C@H]2[C@H](C)O1,3.9,63,63,
C[C@@H]1CN2c3c(cc4c(OC[C@@H]5CCC(=O)N5)noc4c3F)CC3(C(=O)NC(=O)NC3=O)[C@H]2[C@H](C)O1,1,> 125,> 125,IC50 [4]: 2.6 µM
CC(=O)N1[C@H](C)CN2c3c(cc4c(N5C(=O)OC[C@@H]5C)noc4c3F)CC3(C(=O)NC(=O)NC3=O)[C@H]2[C@@H]1C,> 125,> 125,> 125,
C[C@@H]1CN2c3c(cc4c(N5C(=O)OC[C@@H]5C)noc4c3F)CC3(C(=O)NC(=O)NC3=O)[C@H]2[C@H](C)N1C#N,3.9,1,3.9,
Cc1nnc(-c2noc3c(F)c4c(cc23)CC2(C(=O)NC(=O)NC2=O)[C@H]2[C@H](C)[C@@H](O)[C@H](C)CN42)o1,16,> 250,> 250,
C[C@@H]1CN2c3c(cc4c(N5C(=O)OC[C@@H]5C)noc4c3F)CC3(C(=O)NC(=O)NC3=O)[C@H]2[C@H](C)N1O,> 125,> 125,> 125,
C[C@@H]1CN2c3c(cc4c(N5CCC[C@H](O)C5)noc4c3F)CC3(C(=O)NC(=O)NC3=O)[C@H]2[C@H](C)O1,16,94,,
COc1c(N2C[C@@H]3CCCN[C@@H]3C2)c(F)cc2c(=O)c(C(=O)O)cn(C3CC3)c12 [MOXIFLOXACIN],0.17,,,MIC50 [5]: 0.041 µM; MIC99 [5]: 0.07 µM; MIC50 [7]: 0.12 µM; MIC99 [7]: 0.19 µM
C[C@@H]1CN2c3c(cc4c(N5CC[C@H](F)C5)noc4c3F)CC3(C(=O)NC(=O)NC3=O)[C@H]2[C@H](C)O1,4,2,31,
C[C@@H]1CN2c3c(cc4c(OC[C@H]5CCC(=O)N5)noc4c3F)CC3(C(=O)NC(=O)NC3=O)[C@H]2[C@H](C)O1,> 125,,,
C[C@@H]1CN2c3c(cc4c(OC[C@H]5CCC(=O)O5)noc4c3F)CC3(C(=O)NC(=O)NC3=O)[C@H]2[C@H](C)O1,3.9,> 250,> 250,
C[C@@H]1CN2c3c(cc4c(-n5cncn5)noc4c3F)CC3(C(=O)NC(=O)NC3=O)[C@H]2[C@H](C)N1C#N,0.98,16,63,
CO[C@H]1CCN(c2noc3c(F)c4c(cc23)CC2(C(=O)NC(=O)NC2=O)[C@H]2[C@H](C)O[C@H](C)CN42)C1,31,> 125,> 125,IC50 [4]: 77 µM
